Reference: patent US20240246951A1, “COMPOUND HAVING BIOLOGICAL ACTIVITY SUCH AS ANTIVIRAL ACTIVITY” (NATIONAL CENTER FOR GLOBAL HEALTH AND MEDICINE, priority 2021, published 2024)

System: SARS-CoV-2 variants (TX7-501, TY8-612, QHN001, K1734, K5356)
Assay type: cell-based
Settings: variants of Table 4 instead of WK-521; data not shown

Q: `CC(C)(C)[C@H](NC(=O)C(F)(F)F)C(=O)N1C[C@H]2[C@@H]([C@H]1C(=O)N[C@@H](C[C@@H]1CCNC1=O)C(=O)c1nc3c(F)cccc3s1)C2(C)C` [Compound 245, (1R,2S,5S)-3-((S)-3,3-dimethyl-2-(2,2,2-trifluoroacetamido)butanoyl)-N-((S)-1-(4-fluorobenzo[d]thiazol-2-yl)-1-oxo-3-((S)-2-oxopyrrolidin-3-yl)propan-2-yl)-6,6-dimethyl-3-azabicyclo[3.1.0]hexane-2-carboxamide] was tested. Which “antiviral activity against variants” value did it give?
A: The value was “excellent antiviral activities”.
